Data from paper doi:10.1101/2024.01.14.575554v1 (biorxiv, 2024).

Target: T1, Hsp60β (Sulfolobus acidocaldarius, UniProt Q9V2T4)
T1 sequence (Q9V2T4 1-553): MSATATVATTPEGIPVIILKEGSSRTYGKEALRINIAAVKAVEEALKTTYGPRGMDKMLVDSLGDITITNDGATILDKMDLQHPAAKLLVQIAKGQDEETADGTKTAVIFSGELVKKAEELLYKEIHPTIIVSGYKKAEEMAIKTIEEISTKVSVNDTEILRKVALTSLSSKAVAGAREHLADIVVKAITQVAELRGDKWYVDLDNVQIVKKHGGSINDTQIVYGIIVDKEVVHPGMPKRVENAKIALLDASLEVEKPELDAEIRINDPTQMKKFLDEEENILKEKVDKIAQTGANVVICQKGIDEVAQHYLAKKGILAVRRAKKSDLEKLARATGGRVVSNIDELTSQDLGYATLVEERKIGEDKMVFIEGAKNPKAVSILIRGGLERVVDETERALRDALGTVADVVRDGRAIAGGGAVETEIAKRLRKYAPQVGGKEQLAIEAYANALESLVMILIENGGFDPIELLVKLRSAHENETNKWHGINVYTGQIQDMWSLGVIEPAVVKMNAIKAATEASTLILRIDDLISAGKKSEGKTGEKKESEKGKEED
Experiment: FRET titration, tryptophan donor to MANT acceptor
Type: binding

- Kd: 77.2 ± 3.8 µM
Compound: CNc1ccccc1C(=O)O[C@H]1[C@@H](O)[C@H](n2cnc3c(N)ncnc32)O[C@@H]1CO[P@@](=O)(O)O[P@](=O)(O)OP(=O)(O)O [MANT-ATP, 2’/3’-(N-methyl-anthraniloyl)-adenosine-5’-triphosphate]
